The values that follow come from patent publication US11034650B2, “Compounds useful for treating a Mannheimia haemolytica or Histophilus somni infection” (Intervet Inc., priority 2016, dated 2021).

In brackets after ≈: the same amount, converted by molar mass.

The test system of one test is Mannheimia haemolytica MH 6357 (M7/2, reference strain, cattle infection strain). The experiment in a line: MIC, broth-microdilution (CLSI VET01-A4), strain MH 6357. Format: cell-based. Conditions: Mannheimia haemolytica strain MH 6357, broth-microdilution; unit assumed. The method, boiled down:
(§1)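 Doubling dilution series in trays; visual read, MIC = lowest conc. with no visible turbidity; interpretation per CLSI VET01-S3.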
For orientation: Broth dilution looks for growth in wells or tubes with falling amounts of substance.
For `CC(C)(O)[C@H](NC(=O)c1ccc(C#Cc2ccc(CNCc3ccccn3)s2)cc1)C(=O)NO` [Compound 297], the MIC MH 6357 came to 0.2 µg/mL (≈ 0.418 µM).
Turning to `CC(=O)C(NC(=O)c1ccc(C#Cc2ccc(CNCc3cccnc3)cc2)cc1)C(=O)NO` (stereo not shown) [Compound 407], the MIC MH 6357 worked out at 3.1 µg/mL (≈ 6.79 µM).
Same read-out and setting: to `COc1ccc(CNCc2ccc(C#Cc3ccc(C(=O)N[C@H](C(=O)NO)C(C)(C)S(C)(=O)=O)cc3)cn2)cc1` [Compound 352] belongs 0.8 µg/mL (≈ 1.42 µM); to `CC[C@H](C)[C@H](NC(=O)c1ccc(C#Cc2ccc(CNCc3ccnc(Cl)c3)cc2)cc1)C(=O)NO` [Compound 190], 1.6 µg/mL (≈ 3.17 µM).

For a further test, the system named is Mannheimia haemolytica MH 6374 (ATCC 33396, reference strain). The experiment in a line: MIC, broth-microdilution (CLSI VET01-A4), strain MH 6374. Format: cell-based. The following applies: Mannheimia haemolytica strain MH 6374, broth-microdilution; unit assumed. The method, boiled down:
as §1
`CC(C)(O)[C@H](NC(=O)c1ccc(C#Cc2ccc(CNCc3ccccn3)s2)cc1)C(=O)NO` [Compound 297]: the MIC MH 6374 is 0.4 µg/mL (≈ 0.836 µM).
As to `CC(=O)C(NC(=O)c1ccc(C#Cc2ccc(CNCc3cccnc3)cc2)cc1)C(=O)NO` (stereo not shown) [Compound 407], the MIC MH 6374 amounted to 6.3 µg/mL (≈ 13.8 µM).
Regarding `COc1ccc(CNCc2ccc(C#Cc3ccc(C(=O)N[C@H](C(=O)NO)C(C)(C)S(C)(=O)=O)cc3)cn2)cc1` [Compound 352], the MIC MH 6374 was determined as 0.8 µg/mL (≈ 1.42 µM).
`CC[C@H](C)[C@H](NC(=O)c1ccc(C#Cc2ccc(CNCc3ccnc(Cl)c3)cc2)cc1)C(=O)NO` [Compound 190] had an MIC MH 6374 of 3.1 µg/mL (≈ 6.14 µM).

The subject of another test is Mannheimia haemolytica MH 10720 (154, BRD field isolate). Briefly: MIC, broth-microdilution (CLSI VET01-A4), strain MH 10720. In kind it is cell-based. Conditions: Mannheimia haemolytica strain MH 10720, broth-microdilution; unit assumed. The method, boiled down:
as §1
In the case of `CC(C)(O)[C@H](NC(=O)c1ccc(C#Cc2ccc(CNCc3ccccn3)s2)cc1)C(=O)NO` [Compound 297], the MIC MH 10720 was at most 0.1 µg/mL.
Take `CC(=O)C(NC(=O)c1ccc(C#Cc2ccc(CNCc3cccnc3)cc2)cc1)C(=O)NO` (stereo not shown) [Compound 407]: the MIC MH 10720 turned out to be 6.3 µg/mL (≈ 13.8 µM).
Take `COc1ccc(CNCc2ccc(C#Cc3ccc(C(=O)N[C@H](C(=O)NO)C(C)(C)S(C)(=O)=O)cc3)cn2)cc1` [Compound 352]: the MIC MH 10720 was found to be 0.2 µg/mL (≈ 0.354 µM).
For the compound `CC[C@H](C)[C@H](NC(=O)c1ccc(C#Cc2ccc(CNCc3ccnc(Cl)c3)cc2)cc1)C(=O)NO` [Compound 190], the MIC MH 10720 was 0.4 µg/mL (≈ 0.792 µM).

A further test relates to Mannheimia haemolytica MH 12587 (1071, BRD field isolate, macrolide-resistance: erm+, E+). Briefly: MIC, broth-microdilution (CLSI VET01-A4), strain MH 12587. In kind it is cell-based. Conditions: Mannheimia haemolytica strain MH 12587, broth-microdilution; unit assumed. The method, boiled down: as §1
In turn, `CC(C)(O)[C@H](NC(=O)c1ccc(C#Cc2ccc(CNCc3ccccn3)s2)cc1)C(=O)NO` [Compound 297] had an MIC MH 12587 of 0.8 µg/mL (≈ 1.67 µM).
Compound `CC(=O)C(NC(=O)c1ccc(C#Cc2ccc(CNCc3cccnc3)cc2)cc1)C(=O)NO` (stereo not shown) [Compound 407] registered an MIC MH 12587 of 1.6 µg/mL (≈ 3.5 µM).
`COc1ccc(CNCc2ccc(C#Cc3ccc(C(=O)N[C@H](C(=O)NO)C(C)(C)S(C)(=O)=O)cc3)cn2)cc1` [Compound 352] displayed an MIC MH 12587 of 3.1 µg/mL (≈ 5.49 µM).
Turning to `CC[C@H](C)[C@H](NC(=O)c1ccc(C#Cc2ccc(CNCc3ccnc(Cl)c3)cc2)cc1)C(=O)NO` [Compound 190], the MIC MH 12587 came to 3.1 µg/mL (≈ 6.14 µM).

Another test deals with Mannheimia haemolytica MH 13065 (XB0446-6003.9, BRD field isolate). Briefly: MIC, broth-microdilution (CLSI VET01-A4), strain MH 13065. Format: cell-based. The following applies: Mannheimia haemolytica strain MH 13065, broth-microdilution; unit assumed. The method, boiled down:
as §1
In the case of `CC(C)(O)[C@H](NC(=O)c1ccc(C#Cc2ccc(CNCc3ccccn3)s2)cc1)C(=O)NO` [Compound 297], the MIC MH 13065 turned out to be 0.4 µg/mL (≈ 0.836 µM).
Same read-out and setting: the same measure for `CC(=O)C(NC(=O)c1ccc(C#Cc2ccc(CNCc3cccnc3)cc2)cc1)C(=O)NO` (stereo not shown) [Compound 407]: 6.3 µg/mL (≈ 13.8 µM).
Same read-out and setting: to `COc1ccc(CNCc2ccc(C#Cc3ccc(C(=O)N[C@H](C(=O)NO)C(C)(C)S(C)(=O)=O)cc3)cn2)cc1` [Compound 352] belongs 1.6 µg/mL (≈ 2.83 µM); to `CC[C@H](C)[C@H](NC(=O)c1ccc(C#Cc2ccc(CNCc3ccnc(Cl)c3)cc2)cc1)C(=O)NO` [Compound 190], 1.6 µg/mL (≈ 3.17 µM).

The test system of another test is Mannheimia haemolytica MH 13093 (XB0472-6014.1, BRD field isolate). The experiment in a line: MIC, broth-microdilution (CLSI VET01-A4), strain MH 13093. The following applies: Mannheimia haemolytica strain MH 13093, broth-microdilution; unit assumed. In kind it is cell-based. Summed up:
as §1
Compound `CC(C)(O)[C@H](NC(=O)c1ccc(C#Cc2ccc(CNCc3ccccn3)s2)cc1)C(=O)NO` [Compound 297] came in with an MIC MH 13093 of 0.4 µg/mL (≈ 0.836 µM).
Same read-out and setting: the same measure for `CC(=O)C(NC(=O)c1ccc(C#Cc2ccc(CNCc3cccnc3)cc2)cc1)C(=O)NO` (stereo not shown) [Compound 407]: 6.3 µg/mL (≈ 13.8 µM); for `COc1ccc(CNCc2ccc(C#Cc3ccc(C(=O)N[C@H](C(=O)NO)C(C)(C)S(C)(=O)=O)cc3)cn2)cc1` [Compound 352]: 1.6 µg/mL (≈ 2.83 µM); for `CC[C@H](C)[C@H](NC(=O)c1ccc(C#Cc2ccc(CNCc3ccnc(Cl)c3)cc2)cc1)C(=O)NO` [Compound 190]: 1.6 µg/mL (≈ 3.17 µM).

The next test relates to Pasteurella multocida PM 6267 (P 2225 (L386), reference strain, mouse infection strain). Briefly: MIC, broth-microdilution (CLSI VET01-A4), strain PM 6267. Conditions: Pasteurella multocida strain PM 6267, broth-microdilution; unit assumed. In kind it is cell-based. Summed up: as §1
`CC(C)(O)[C@H](NC(=O)c1ccc(C#Cc2ccc(CNCc3ccccn3)s2)cc1)C(=O)NO` [Compound 297] came in with an MIC PM 6267 of 0.4 µg/mL (≈ 0.836 µM).
Regarding `CC(=O)C(NC(=O)c1ccc(C#Cc2ccc(CNCc3cccnc3)cc2)cc1)C(=O)NO` (stereo not shown) [Compound 407], the MIC PM 6267 amounted to 25 µg/mL (≈ 54.8 µM).
Consider `COc1ccc(CNCc2ccc(C#Cc3ccc(C(=O)N[C@H](C(=O)NO)C(C)(C)S(C)(=O)=O)cc3)cn2)cc1` [Compound 352], for which the MIC PM 6267 was determined as 0.8 µg/mL (≈ 1.42 µM).
Same read-out and setting: the same measure for `CC[C@H](C)[C@H](NC(=O)c1ccc(C#Cc2ccc(CNCc3ccnc(Cl)c3)cc2)cc1)C(=O)NO` [Compound 190]: at most 0.1 µg/mL.

The subject of a further test is Pasteurella multocida PM 6391 (ATCC 43137, reference strain). Briefly: MIC, broth-microdilution (CLSI VET01-A4), strain PM 6391. Format: cell-based. Conditions: Pasteurella multocida strain PM 6391, broth-microdilution; unit assumed. The procedure: For example, representative compounds were tested against ***, Mannheimia haemolytica and Pasteurella multocida, using the conventional broth-dilution assay.
The Minimum inhibitory concentrations (MIC) of compounds according to the invention for a number of veterinary bacterial pathogens were determined by the broth-microdilution method according to CLSI document VET01-A4.
Microdilution trays containing a doubling dilution series of the test compound were used for the tests. The MIC results were interpreted according to the CLSI documents VET01-S3. The lowest concentration of compound at which no visible growth (i.e. no turbidity) detected by the unaided eye was recorded as the MIC.
Regarding `CC(C)(O)[C@H](NC(=O)c1ccc(C#Cc2ccc(CNCc3ccccn3)s2)cc1)C(=O)NO` [Compound 297], the MIC PM 6391 is at most 0.1 µg/mL.
Turning to `CC(=O)C(NC(=O)c1ccc(C#Cc2ccc(CNCc3cccnc3)cc2)cc1)C(=O)NO` (stereo not shown) [Compound 407], the MIC PM 6391 was determined as 0.2 µg/mL (≈ 0.438 µM).
As for `COc1ccc(CNCc2ccc(C#Cc3ccc(C(=O)N[C@H](C(=O)NO)C(C)(C)S(C)(=O)=O)cc3)cn2)cc1` [Compound 352], the MIC PM 6391 is 0.4 µg/mL (≈ 0.708 µM).
With `CC[C@H](C)[C@H](NC(=O)c1ccc(C#Cc2ccc(CNCc3ccnc(Cl)c3)cc2)cc1)C(=O)NO` [Compound 190], the MIC PM 6391 turned out to be 0.4 µg/mL (≈ 0.792 µM).

In a further test the test system is Pasteurella multocida PM 10775 (080130003051, BRD field isolate). The experiment in a line: MIC, broth-microdilution (CLSI VET01-A4), strain PM 10775. In kind it is cell-based. Conditions: Pasteurella multocida strain PM 10775, broth-microdilution; unit assumed. The method, boiled down:
as §1
Compound `CC(C)(O)[C@H](NC(=O)c1ccc(C#Cc2ccc(CNCc3ccccn3)s2)cc1)C(=O)NO` [Compound 297] registered an MIC PM 10775 of at most 0.1 µg/mL.
Regarding `CC(=O)C(NC(=O)c1ccc(C#Cc2ccc(CNCc3cccnc3)cc2)cc1)C(=O)NO` (stereo not shown) [Compound 407], the MIC PM 10775 was 1.6 µg/mL (≈ 3.5 µM).
The compound `COc1ccc(CNCc2ccc(C#Cc3ccc(C(=O)N[C@H](C(=O)NO)C(C)(C)S(C)(=O)=O)cc3)cn2)cc1` [Compound 352] showed an MIC PM 10775 of at most 0.1 µg/mL.
`CC[C@H](C)[C@H](NC(=O)c1ccc(C#Cc2ccc(CNCc3ccnc(Cl)c3)cc2)cc1)C(=O)NO` [Compound 190]: the MIC PM 10775 was at most 0.1 µg/mL.

For another test, the system named is Pasteurella multocida PM 12080 (IV102277-0093, BRD field isolate). Briefly: MIC, broth-microdilution (CLSI VET01-A4), strain PM 12080. Format: cell-based. Conditions: Pasteurella multocida strain PM 12080, broth-microdilution; unit assumed. The method, boiled down:
as §1
As for `CC(C)(O)[C@H](NC(=O)c1ccc(C#Cc2ccc(CNCc3ccccn3)s2)cc1)C(=O)NO` [Compound 297], the MIC PM 12080 was 0.2 µg/mL (≈ 0.418 µM).
In turn, `CC(=O)C(NC(=O)c1ccc(C#Cc2ccc(CNCc3cccnc3)cc2)cc1)C(=O)NO` (stereo not shown) [Compound 407] displayed an MIC PM 12080 of 0.8 µg/mL (≈ 1.75 µM).
Compound `COc1ccc(CNCc2ccc(C#Cc3ccc(C(=O)N[C@H](C(=O)NO)C(C)(C)S(C)(=O)=O)cc3)cn2)cc1` [Compound 352] gave an MIC PM 12080 of 0.2 µg/mL (≈ 0.354 µM).
For the compound `CC[C@H](C)[C@H](NC(=O)c1ccc(C#Cc2ccc(CNCc3ccnc(Cl)c3)cc2)cc1)C(=O)NO` [Compound 190], the MIC PM 12080 is 0.2 µg/mL (≈ 0.396 µM).
